Experiment in all cases: NCI-60 cell line screen, 48 h
In experiment [1] the test system is HCT-15 colon.
The subject of experiment [2] is MDA-MB-435.
The test system of experiment [3] is UACC-62 melanoma.
The test system of experiment [4] is 786-0 renal.
For experiment [5], the system named is LOX IMVI melanoma.
Experiment [6] relates to SF-539 CNS.
Experiment [7] has as its system SK-MEL-28 melanoma.
Experiment [8] has as its system MDA-MB-231 breast.
In experiment [9] the test system is SF-295 CNS.
Experiment [10] concerns SW-620 colon.

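Step 1: Grow cells in 96-well plates. Step 2: Expose to compound for 48 hours at 5 concentrations. Step 3: Interpolate endpoints linearly; if unreached, use highest concentration. Here, GI50 denotes the concentration required for 50% inhibition of growth. Definition used: TGI = concentration required for complete inhibition of growth.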

With `COc1ccc(-c2nccn2-c2cc(OC)c(OC)c(OC)c2)cc1`, the GI50 in experiment [1] was 1160 nM; in [2], 222 nM; in [3], 675 nM; in experiment [4], 13600 nM; in experiment [5] it was 8760 nM; in experiment [6], 5780 nM. For the same compound, the GI50 was 20600 nM in experiment [7], 7620 nM in [8], 1780 nM in [9] and 1340 nM in experiment [10]. Besides, the TGI in [1] was over 100000 nM; in [2], 3250 nM; in experiment [3] it was 24100 nM; in experiment [4] it was over 100000 nM; in experiment [5] it was over 100000 nM; in experiment [6], 24400 nM. Moreover, the TGI was over 100000 nM in experiment [7], 90300 nM in [8], over 68100 nM in [9] and over 100000 nM in experiment [10].

As to `COc1ccc(/C=C2\CC(C)CC3C2=NN(C(C)=O)C3c2ccc(OC)c(OC)c2)cc1OC` (stereo not drawn), the GI50 was 15400 nM in experiment [1]; 18600 nM in experiment [2]; 16200 nM in [3]; 12900 nM in [4]; 17700 nM in experiment [5]; 20200 nM in experiment [6]. The GI50 was 21800 nM in [7], 24500 nM in [8], 19900 nM in experiment [9] and 26100 nM in experiment [10]. In addition, the TGI amounted to 32800 nM in [1]; 39400 nM in experiment [2]; 33300 nM in [3]; 27400 nM in experiment [4]; 34800 nM in experiment [5]; 37800 nM in [6]. In addition, the TGI in experiment [7] was 46900 nM; in experiment [8] it was over 100000 nM; in [9], 50200 nM; in experiment [10], 67100 nM.

For the compound `CC(=O)OC1C(OC/C2=C/C3[C@@H](C(C)C)CC=C(C)[C@@H]3CC(OC(=O)/C=C/c3cn(C)cn3)[C@]3(C)C=C[C@@]2(O)O3)OCC(O)C1O` (stereo partly drawn), the GI50 in experiment [1] was 1200 nM; in experiment [2], 6.26 nM; in experiment [3], 24.2 nM; in [4], 44.1 nM; in experiment [5], 23.4 nM; in experiment [6], 12.3 nM. The GI50 in [7] was 38.9 nM; in experiment [8], 421 nM; in experiment [9], 30 nM; in experiment [10], 18.8 nM. Moreover, the TGI in experiment [1] is over 50000 nM; in experiment [2], 20.8 nM; in experiment [3] it was over 50000 nM; in experiment [4] it was over 50000 nM; in [5], over 50000 nM; in [6], 59.8 nM. Besides, the TGI in experiment [7] was over 50000 nM; in experiment [8], over 50000 nM; in [9], 296 nM; in [10] it was over 50000 nM.

Take `Cc1cc(N2CCOCC2)nc(N(CCNc2ccnc3cc(Cl)ccc23)Cc2cccs2)n1`: the GI50 was 1780 nM in experiment [1]; 1760 nM in [2]; 1900 nM in [3]; 1690 nM in experiment [4]; 1720 nM in experiment [5]; 1810 nM in experiment [6]. In addition, the GI50 in [7] is 1760 nM; in experiment [8], 1970 nM; in [9], 1580 nM; in experiment [10], 1920 nM. For the same compound, the TGI in experiment [1] stood at 4050 nM; in [2], 3320 nM; in experiment [3], 3650 nM; in [4], 3120 nM; in experiment [5], 3180 nM; in experiment [6] it was 3320 nM. Further, the TGI in [7] turned out to be 3700 nM; in experiment [8], 3640 nM; in experiment [9] it was 3130 nM; in [10], 4180 nM.

Turning to `CC1SC(c2cccc(Oc3ccccc3)c2)N(CCc2cccs2)C1=O` (stereo not drawn), the GI50 was 1080 nM in [1]; 1190 nM in experiment [2]; 676 nM in experiment [3]; 1200 nM in experiment [4]; 883 nM in experiment [5]; 1500 nM in experiment [6]. Further, the GI50 was 1420 nM in experiment [7], 1090 nM in experiment [8], 725 nM in experiment [9] and 1400 nM in experiment [10]. The TGI in experiment [1] came out at 3770 nM; in experiment [2], 3140 nM; in [3], 2220 nM; in experiment [4] it was 2830 nM; in [5], 2110 nM; in experiment [6] it was 3110 nM. For the same compound, the TGI in experiment [7] was 2780 nM; in [8] it was 2580 nM; in experiment [9], 2230 nM; in [10], 3000 nM.

Consider `COc1cc(C2C3=C(COC3=O)N(CCO)c3cc4c(cc32)CCC4)cc(OC)c1OC` (stereo not drawn), for which the GI50 was 199 nM in experiment [1]; 27.9 nM in experiment [2]; 74.9 nM in experiment [3]; 119 nM in experiment [4]; 166 nM in experiment [5]; 91 nM in experiment [6]. Further, the GI50 in experiment [7] is 1240 nM; in experiment [8], 137 nM; in experiment [9] it was 47.9 nM; in experiment [10] it was 126 nM. Also, the TGI in [1] is over 32500 nM; in experiment [2], 187 nM; in experiment [3], over 32500 nM; in experiment [5], over 32500 nM; in experiment [6] it was 663 nM; in [7], over 32500 nM. Besides, the TGI in [8] and in [10] was over 32500 nM each time.

Turning to `COc1cc2c(cc1Nc1nc(Nc3ccsc3C(N)=O)c3cc[nH]c3n1)N(C(=O)CN(C)C)CCC2`, the GI50 in [1] was 1870 nM; in [2], 49.9 nM; in experiment [3], 889 nM; in [4], 3130 nM; in experiment [5] it was 580 nM; in experiment [6] it was 983 nM. In addition, the GI50 is 1800 nM in experiment [7], 1010 nM in experiment [8], 974 nM in experiment [9] and 72.6 nM in experiment [10]. For the same compound, the TGI is over 25000 nM in experiment [1]; 489 nM in experiment [2]; 4200 nM in [3]; 6950 nM in experiment [4]; 3660 nM in experiment [5]; 4160 nM in [6]. In addition, the TGI in [7] was 5690 nM; in experiment [8] it was 4630 nM; in experiment [9], 4800 nM; in experiment [10], over 25000 nM.

Values taken from PubChem BioAssay (NCI).
